Results taken from patent US7091205B2, “Use of tetramethylpyrazine in the treatment of brain tumor” (priority 2004, dated 2006).

How the values were obtained:
glioma cells = conditions: Ishiuchi et al., 2002; cited from earlier work
neurons = conditions: through protecting mitochondria and inhibiting free radical generation; Shih et al, 2002; cited from earlier work
[1] = Pang et al., 1996; cited from earlier work
rat C6 glioma cell line [2] = test: Determination of cell death by propidium iodide fluorescence (flow cytometry); type: cell-based; conditions: 200 μM and 400 μM TMP, 24 hours; p<0.05 vs control; FIG. 1
Description: (§1) The rat C6 glioma cell line was purchased from the Food Industry Research and Development Institute, Taiwan. The cell culture within the tubes was transferred into a 15 ml centrifugation tube and centrifuged at 900 rpm for 3 minutes. Resulted supernatant was removed and 4 ml 10% FBS-DMEM was added to the centrifugation tube and sufficiently mixed with the cell pellet. The cells were counted and cultured in a 24-well plate (2×10^4 cells per well) for subsequent in vitro experiments.
(§2) The cultured C6 glioma cells were treated with TMP (Fluka, F-87915) at final concentrations of 50 μM, 100 μM, 200 μM, and 400 μM for 24 hours.
The degree of damage to glioma cells was measured as the intensity of propidium iodide (PI) fluorescence. PI is a fluorescent dye that binds DNA, with an excitation wavelength of 485 nm and an emission wavelength of 620 nm. When a cell is damaged, the permeability of the cell membrane is increased and PI can enter the cell to bind DNA.
The TMP-treated glioma cells were treated with 5 ng/ml PI (Molecular Probes, P-1304) for 1 hour, and then washed with 0.1 M PBS. The intensity of PI fluorescence was read by flow cytometry (FACSort).

[3] = test system: glioma cells implanted in frontal cortex of Sprague-Dawley rats; test: Activity of glioma by micro positron emission tomography (18F-FDG); type: in vivo; conditions: 15th day following implantation; one rat; TMP from the 8th day; highly activated tumor still exists in control rat; FIG. 6 D to F
Description: (§3) Sprague-Dawley (S.D.) rats obtained from the Animal Center of National Yang-Ming University were kept in the following conditions: 12 hours of artificial lightening per day; 22±2° C. air conditioning; sufficient water and food. Eight-week old female rats, weighing 250 to 300 g, were used in the experiments.
(§4) The rats were anesthetized with chloride hydrate (400 mg/Kg, i.p.) and immobilized on a stereotaxic apparatus (Narishige, Japan). The skin on the head was cut with scissors to expose the skull. Bregma was found as the reference point for the location of microinjection (three-dimensional orientation point: A: 0.7 mm, L; 2.0 mm, H: 2.0 mm). The location was marked with a pen, and the skull at the location was drilled with a drill. Glioma cells (10^6 cells) were injected (2 μl/3 mins; total 10 μl) into the frontal cortex of the left brain of the rats with a microinjector.
(§5) The rats were divided into two groups. […] The rats of the TMP group received TMP treatment (0.4 mg, subcutaneous injection, twice a day) from the 8th day following the implantation. The survival days of rats of the two groups were recorded.
To determine the activity of glioma cells in the rats, the activity profiles of the tumors were obtained by micro positron emission tomography (micro PET) on the 8th and 15th day following the implantation of glioma cells. […]

[4] = Tsai and Liang, 2001; cited from earlier work
rat C6 glioma cell line [5] = test: Determination of Ca2+ permeability (Fura-2 AM, glutamate-induced Ca2+ increase); type: cell-based; conditions: 50 μM to 400 μM TMP, 24 hours; 200 μM glutamate for 20 seconds; p<0.05 vs control; FIG. 2
Description: as §1, §2
The TMP-treated glioma cells were washed with running buffer for three times, put in a 5 μM Fura-2 AM solution for 30 minutes, and treated with 200 μM glutamate for 20 seconds. The change of Ca^2+ concentration within glioma cells was observed on a fluorescence microscope (IX-70, Olympus, Japan).

[6] = test system: glioma cells implanted in frontal cortex of Sprague-Dawley rats; test: Survival time of rats implanted with glioma cells; type: in vivo, rat; conditions: 0.4 mg subcutaneous twice a day from the 8th day following implantation
Description: as §3, §4, §5

rat C6 glioma cell line [7] = test: Determination of cell cycle (PI staining, flow cytometry); type: cell-based; conditions: 400 μM TMP, 24 hours; p<0.05 vs control; FIG. 3
Description: as §1, §2
The TMP-treated glioma cells were treated with trypsin/EDTA (Biochrom AG, L-2153), shaken off, collected in a 15 ml centrifugation tube, and centrifuged at 900 rpm for 3 minutes. The resulting supematant was removed and 1 ml PI solution (50 μg/ml PI, 0.1% sodium citrate, and 0.1% Triton X-100) was added. After one hour of dark incubation at room temperature, the intensity of PI fluorescence was read by flow cytometry (FACSort). In the G2/M phase, DNA has been replicated, and thus the intensity of PI fluorescence of cells in the G2/M phase should be two times of that of cells in the G1 phase.

SMILES	proliferation of glioma cells (glioma cells)	excitotoxicity to neurons induced by kainite (neurons)	increase of the concentration of calcium [1]	damage to glioma cells (intensity of PI fluorescence) (rat C6 glioma cell line [2])	micro PET image of tumor activity [3]	crossing of the blood-brain barrier [4]	Ca2+ concentration within glioma cells resulting from treatment with glutamate (rat C6 glioma cell line [5])	survival time following implantation, half of the rats of the TMP group ([6]; FIG. 4(B))	survival time following implantation, all rats of the TMP group ([6]; control rats died after 15 to 22 days, FIG. 4)	ratio of cells in the G2/M phase (rat C6 glioma cell line [7])
C[C@]12N[C@H](Cc3ccccc31)c1ccccc12 [MK801]	can effectively inhibit the proliferation of glioma cells									
Cc1nc(C)c(C)nc1C [TMP, tetramethylpyrazine]		can reduce the excitotoxicity to neurons induced by kainite	can inhibit the increase of the concentration of calcium	resulted in glioma cell death	no image of a highly activated tumor	can cross the blood-brain barrier	effectively reduced Ca^2+ concentration within glioma cells	40 days	at least 22 days	effectively reduced the ratio of cells in the G2/M phase
